The source of these data is PMC11700842 (The Journal of Antibiotics, 2024).

SMILES strings stand for the structures. ≈ marks a conversion by molar mass, not a printed value.

Data set [1] has as its system M. smegmatis. Description: MIC determination (resazurin) against M. smegmatis. In kind it is cell-based, M. smegmatis mc^2155. The settings on record: Mycolicibacterium smegmatis; lowest concentration reducing growth to 1% or less; 21 h + 3 h resazurin; N = 3.
The test system of another data set is E. faecium E745. Description: microbe, parasite or virus in culture. The data set is classed as cell-based. The following applies: Enterococcus faecium, E745, 24 h, read-out: MIC99 E. faecium E745.
Data set [2] relates to M. smegmatis. Briefly: Ethidium bromide accumulation assay in M. smegmatis. The data set is classed as cell-based. The following applies: analogues 100 µM, verapamil 102 µM, with glucose.
For data set [3], the system named is M. smegmatis. Description: Ethidium bromide efflux assay in M. smegmatis. In kind it is cell-based. The settings on record: analogues 100 µM, verapamil 102 µM, with glucose.
Data set [4] concerns M. bovis BCG. The data set is classed as cell-based. The following applies: analogues 100 µM, verapamil 102 µM, with glucose.
Data set [5] relates to M. bovis BCG. In kind it is cell-based. The following applies: analogues 100 µM, verapamil 102 µM, with glucose. This is another data set of the same source.
The subject of another data set is dopamine transporter. On the set-up: method as in PMID 28274674. The settings on record: human embryonic kidney 293 cells; 20 nM [3H] dopamine over 5 min at 37 °C; read-out: IC50 against the dopamine transporter; cited from earlier work.
Another data set relates to Streptococcus pneumoniae. On the set-up: method as in PMID 36982905. The settings on record: cited from earlier work.
For data set [6] the following is noted: three patients with structural heart disease; cited from earlier work.

On to `Fc1ccc(C(OCCN2CCN(CCCc3ccccc3)CC2)c2ccc(F)cc2)cc1` [vanoxerine, 1-[2-[Bis(4-fluorophenyl)methoxy]ethyl]-4-(3-phenylpropyl)piperazine, reference compound], for which the values for the MIC99 in the data set on M. smegmatis [1] and with E. faecium E745 were 50 µM and 44 µM (≈ 19.8 µg/mL), respectively. For the same compound, the “% Change in fluorescence (accumulation)” value was 299 ± 3% in the data set on M. smegmatis [2] (end of 60 min assay) and 48 ± 3% in the data set with M. bovis BCG [4] (end of 60 min assay). The “Rate of accumulation (ethidium bromide)” value came to 3000 ± 130 RFUs/min in the data set on M. smegmatis [2] (rate from 5–14 minutes) and 490 ± 800 RFUs/min in the data set with M. bovis BCG [4] (rate from 5–14 minutes). Further, the “% Change in fluorescence (efflux)” value with M. smegmatis [3] (end of 60 min assay) is “–11 ± 0.5%”; in the data set with M. bovis BCG [5] (end of 60 min assay), “–15 ± 1%”. The results for the “Rate of efflux (ethidium bromide)” value with M. smegmatis [3] (rate from 0–9 minutes) and in the data set on M. bovis BCG [5] (rate from 0–9 minutes) were “–1100 ± 500 RFUs/min” and “–1100 ± 950 RFUs/min”, respectively. The 50% inhibitory concentration (IC50) with dopamine transporter was […]. The “activity against Streptococcus pneumoniae (in words)” value with Streptococcus pneumoniae is listed as “inhibited Streptococcus pneumoniae”. Also, in data set [6], the “adverse cardiac event in phase III clinical trial” value was “caused ventricular pro-arrhythmia”.
